The subject of test [1] is human A549 cells. The test is described as follows: Inhibition test of PGE2 production using human A549 cells. It is filed as cell-based. To be noted: IL-1β stimulated A549 cells, 24 h, PGE2 by HTRF, read-out: A549 cell inhibition of PGE2 production IC50. As to the method:
100 μL of RPMI medium (Sigma) comprising 10% FBS and human A549 cells was seeded in a 96-well plate to […] cells per well, and incubated overnight. The medium was then removed and washed with phosphate-buffered saline, and added to a DMSO solution of the test compound or RPMI medium comprising 3% FBS with DMSO to a final concentration of 0.1% DMSO. After incubation for 60 minutes, IL-1P (5 ng/well, BioLegend) was added to the solution. After incubation at 37° C. for 24 h, PGE2 in the medium was quantified using the HTRF kit (Cisbio International) and PGF2a was also quantified using the EIA kit (Cayman chemical). Solutions without the test compound were used as positive controls, and solutions without the test compound and IL-1β were used as negative controls. 100% activity was defined as production of PGE2 and PGF2a in the positive control minus those in the negative control. IC50 values were then determined using standard methods.
(In general: TR-FRET usually uses a lanthanide donor and a delayed reading to cut background.)

Test [2] deals with human mPGES-1 (Homo sapiens (Human), UniProt O14684). The experiment in a line: mPGES-1 inhibitory activity test. In kind it is biochemical. To be noted: microsomes of CHO-K1 cells expressing human mPGES-1, PGH2 1 μM, PGE2 by HTRF; read-out: mPGES-1 inhibition (IC50 nM). As to the method:
mPGES-1 microsomal specimens were prepared by transiently transfecting CHO-K1 cells (DS Pharma Biomedical Co. Ltd) with a plasmid encoding human mPGES-1 cDNA using FuGENE 6 Transfection Reagent (Promega). The prepared mPGES-1 microsome specimens were diluted in potassium phosphate buffer of pH 7.4 comprising 2.5 mM reduced glutathione (Sigma-Aldrich), DMSO solution of a test compound or DMSO was added to a final concentration of 1% of DMSO, and then incubated at 4° C. for 20 minutes. The enzymatic reaction was then initiated by adding a solution of PGH2 (Cayman chemical) substrate of a final concentration 1 μM and incubated at 4° C. for 60 seconds. The reaction was terminated by adding a solution of ferric chloride (STREM CHEMICALS) and citric acid (Wako Pure Chemical Industries) salt to a final concentration of 5 mg/mL and 250 mM, respectively. The formed PGE2 was quantified using the HTRF kit (Cisbio International). Solutions without the test compound were used as positive controls, and solutions without the test compound and microsomal specimens were used as negative controls. 100% activity was defined as production of PGE2 in the positive control minus that in the negative control. The percentage inhibition of production of PGE2 at final concentrations of 10 nM and 100 nM of the test compound was then calculated, or IC50 values were determined using standard methods.

pIC50: −log10 of the molar value. Counter-ions that a name gives are not always drawn.

human mPGES-1, sequence (O14684 whole entry): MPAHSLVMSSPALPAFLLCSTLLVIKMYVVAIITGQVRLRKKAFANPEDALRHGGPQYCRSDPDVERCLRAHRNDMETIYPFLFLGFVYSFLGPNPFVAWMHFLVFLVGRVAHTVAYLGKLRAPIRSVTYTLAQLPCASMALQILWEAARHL

Usually pIC50 stands for the negative decadic logarithm of the IC50, by convention in mol/L. One may read the IC50 as the point on the concentration scale where inhibition reaches its midpoint. For `O=C(CC1CCCC1)NCc1ccc(Cl)c(C(=O)Nc2cccc3c2cnn3-c2ccc(C(F)(F)F)cc2)c1` [Example 46, 2-Chloro-5-{[(cyclopentylacetyl)amino]methyl}-N-{1-[4-(trifluoromethyl)phenyl]-1H-indazol-4-yl}benzamide], in test [1], the pIC50 is 7.84. Further, the half-maximal inhibitory concentration (IC50) in test [2] came out at 3 nM.
For `COCCC(=O)NCc1ccc(Cl)c(C(=O)Nc2cccc3c2cnn3-c2ccc(C(F)(F)F)cc2)c1` [Example 47, 2-Chloro-5-{[(3-methoxypropanoyl)amino]methyl}-N-{1-[4-(trifluoromethyl)phenyl]-1H-indazol-4-yl}benzamide] the same measures were 8.07 and 8 nM.
On to `COc1ccc(-n2ncc3c(NC(=O)c4cc(CNC(=O)C(C)(C)C)ccc4Cl)cccc32)cc1` [Example 48, 2-Chloro-5-{[(2,2-dimethylpropanoyl)amino]methyl}-N-[1-(4-methoxyphenyl)-1H-indazol-4-yl]benzamide], for which the pIC50 in test [1] is 8.40. Moreover, the IC50 in test [2] is 3.3 nM.
On to `COc1cccc(-n2ncc3c(NC(=O)c4cc(CNC(=O)C(C)(C)C)ccc4Cl)cccc32)c1` [Example 49, 2-Chloro-5-{[(2,2-dimethylpropanoyl)amino]methyl}-N-[1-(3-methoxyphenyl)-1H-indazol-4-yl]benzamide], for which the negative-log IC50 (pIC50) in test [1] was 9.05. For the same molecule, the half-inhibitory concentration (IC50) in test [2] was determined as 9.9 nM.
Turning to `CC(C)(C)C(=O)NCc1ccc(Cl)c(C(=O)Nc2cccc3c2cnn3-c2ccc(C(F)(F)F)cc2)c1` [Example 50, 2-Chloro-5-{[(2,2-dimethylpropanoyl)amino]methyl}-N-{1-[4-(trifluoromethyl)phenyl]-1H-indazol-4-yl}benzamide], the negative logarithm of the IC50 (pIC50) in test [1] was 8.46. The IC50 in test [2] amounted to 14.7 nM.
On to `CC(C)(C)C(=O)NCc1ccc(Cl)c(C(=O)Nc2cccc3c2cnn3-c2ccc(OC(F)(F)F)cc2)c1` [Example 51, 2-Chloro-5-{[(2,2-dimethylpropanoyl)amino]methyl}-N-{1-[4-(trifluoromethoxy)phenyl]-1H-indazol-4-yl}benzamide], for which, in test [1], the negative-log IC50 (pIC50) was 6.95. The concentration for half-maximal inhibition (IC50) in test [2] came out at 5 nM.
Regarding `Cc1ncc(-n2ncc3c(NC(=O)c4cc(CNC(=O)C(C)(C)C)ccc4Cl)cccc32)cn1` [Example 52, 2-Chloro-5-{[(2,2-dimethylpropanoyl)amino]methyl}-N-[1-(2-methylpyrimidin-5-yl)-1H-indazol-4-yl]benzamide], in test [1], the negative-log IC50 (pIC50) is 7.68. Besides, in test [2], the IC50 was determined as 3.6 nM.
On to `Cc1ccc(-n2ncc3c(NC(=O)c4cc(CNC(=O)C(C)(C)C)ccc4Cl)cccc32)cc1Cl` [Example 53, 2-Chloro-N-[1-(3-chloro-4-methylphenyl)-1H-indazol-4-yl]-5-([(2,2-dimethylpropanoyl)amino]methyl)benzamide], for which the negative logarithm of the IC50 (pIC50) in test [1] is 8.74. In addition, the IC50 in test [2] turned out to be 2.6 nM.
The matching figures for `Cc1ccc(-n2ncc3c(NC(=O)c4cc(CNC(=O)C(C)(C)C)ccc4Cl)cccc32)cn1` [Example 54, 2-Chloro-5-{[(2,2-dimethylpropanoyl)amino]methyl}-N-[1-(6-methylpyridin-3-yl)-1H-indazol-4-yl]benzamide hydrochloride]: 8.21 and 9.5 nM.
For `CC(C)(C)C(=O)NCc1ccc(Cl)c(C(=O)Nc2cccc3c2cnn3-c2ccc(C#N)cc2)c1` [Example 55, 2-Chloro-N-[1-(4-cyanophenyl)-1H-indazol-4-yl]-5-([(2,2-dimethylpropanoyl)amino]methyl)benzamide] the same measures were 8.74 and 1.3 nM.
In the case of `Cc1ncccc1-n1ncc2c(NC(=O)c3cc(CNC(=O)C(C)(C)C)ccc3Cl)cccc21` [Example 56, 2-Chloro-5-{[(2,2-dimethylpropanoyl)amino]methyl}-N-[1-(2-methylpyridin-3-yl)-1H-indazol-4-yl]benzamide hydrochloride], the negative-log IC50 (pIC50) in test [1] was 6.74. In test [2], the IC50 was determined as 23.6 nM.

The record behind these values is patent publication US20250059172A1, “INDAZOLE COMPOUND AND PHARMACEUTICAL” (NIPPON SHINYAKU CO., LTD., priority 2021, published 2025).
